From paper PMC7707092, “Discovery and characterization of ORM‐11372, a novel inhibitor of the sodium‐calcium exchanger with positive inotropic activity” (British Journal of Pharmacology, 2020)
pIC50: −log10 of the molar value.

Columns and labels:
[1] = biological target: T1, noradrenaline transporter (Rattus norvegicus, UniProt Q9WTR4); assay: [^3H]noradrenaline uptake into rat hypothalamus synaptosomes; assay type: biochemical
T1 construct: [^3H]noradrenaline incorporated into rat hypothalamus synaptosomes; from tissue; host or cells: rat hypothalamus synaptosomes
T1 sequence (Q9WTR4 1-597): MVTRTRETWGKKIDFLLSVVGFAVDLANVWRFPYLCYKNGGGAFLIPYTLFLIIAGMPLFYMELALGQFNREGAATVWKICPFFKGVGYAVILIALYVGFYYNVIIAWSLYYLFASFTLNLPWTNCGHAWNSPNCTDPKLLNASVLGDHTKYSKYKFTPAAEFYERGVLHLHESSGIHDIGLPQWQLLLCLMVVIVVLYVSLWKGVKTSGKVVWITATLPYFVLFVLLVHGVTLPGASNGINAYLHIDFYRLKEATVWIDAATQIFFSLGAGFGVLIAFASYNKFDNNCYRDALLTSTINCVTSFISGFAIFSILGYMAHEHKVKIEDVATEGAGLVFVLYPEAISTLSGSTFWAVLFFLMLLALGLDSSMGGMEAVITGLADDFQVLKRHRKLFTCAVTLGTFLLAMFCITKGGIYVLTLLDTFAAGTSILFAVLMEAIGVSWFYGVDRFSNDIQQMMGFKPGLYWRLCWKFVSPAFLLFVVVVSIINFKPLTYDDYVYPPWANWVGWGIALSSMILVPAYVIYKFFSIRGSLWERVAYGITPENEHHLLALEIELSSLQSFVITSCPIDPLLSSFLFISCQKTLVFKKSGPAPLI
Method: Radioligand binding assays were performed at Eurofins Cerep SA (Celle L'Evescault, France), for testing the inhibition capacity of ORM‐11372 (at 10 μM with two replicates), in over 75 targets. These included receptors (e.g., human A1, A2A, and A3 adenosine receptors; α1 and α2 adrenoceptors; human β1–β3 adrenergic receptors; human D1, D2S, D3, D4.4, and D5 dopamine receptors; EGF and VEGF receptors; human M1–M5 muscarinic ACh receptors; human 5‐HT1A, 5‐HT2A, 5‐HT2B, 5‐HT2C, 5‐HT4e, 5‐HT5A, 5‐HT6, and 5‐HT7 receptors), ion channels (5‐HT3, Ca^2+, ATP‐dependent potassium channel [KATP], voltage‐dependent potassium channel [KV], small‐conductance calcium‐dependent potassium channel [SKCa], Na^+, and Cl^−), and transporters (adenosine, noradrenaline, dopamine, and 5‐HT). Follow‐up functional studies (with five concentrations and two replicates) were performed for 5‐HT2A receptors and noradrenaline transporter. Agonism and antagonism at h5‐HT2A receptors was explored in recombinant HEK 293 cells and intracellular calcium changes were detected using fluorimetry. Noradrenaline uptake was measured by carrying out scintillation counting of [^3H]noradrenaline incorporated into rat hypothalamus synaptosomes.

[2] = biological target: T2, L‐type Ca^2+ channel current (I CaL) (Rattus norvegicus, UniProt P22002); assay: L‐type calcium current (I CaL), patch‐clamp in rat ventricular myocytes; assay type: cell-based; conditions: for effect on calcium current (ICaL) at various test potentials: rat cardiomyocytes; for inhibition at 10 µM: rat ventricular CMs
T2 construct: the inward calcium current (ICaL) in isolated rat cardiomyocytes; endogenous in cells; host or cells: freshly isolated left ventricular cardiomyocytes of male Wistar rats
T2 sequence (P22002 whole entry, other chains not shown): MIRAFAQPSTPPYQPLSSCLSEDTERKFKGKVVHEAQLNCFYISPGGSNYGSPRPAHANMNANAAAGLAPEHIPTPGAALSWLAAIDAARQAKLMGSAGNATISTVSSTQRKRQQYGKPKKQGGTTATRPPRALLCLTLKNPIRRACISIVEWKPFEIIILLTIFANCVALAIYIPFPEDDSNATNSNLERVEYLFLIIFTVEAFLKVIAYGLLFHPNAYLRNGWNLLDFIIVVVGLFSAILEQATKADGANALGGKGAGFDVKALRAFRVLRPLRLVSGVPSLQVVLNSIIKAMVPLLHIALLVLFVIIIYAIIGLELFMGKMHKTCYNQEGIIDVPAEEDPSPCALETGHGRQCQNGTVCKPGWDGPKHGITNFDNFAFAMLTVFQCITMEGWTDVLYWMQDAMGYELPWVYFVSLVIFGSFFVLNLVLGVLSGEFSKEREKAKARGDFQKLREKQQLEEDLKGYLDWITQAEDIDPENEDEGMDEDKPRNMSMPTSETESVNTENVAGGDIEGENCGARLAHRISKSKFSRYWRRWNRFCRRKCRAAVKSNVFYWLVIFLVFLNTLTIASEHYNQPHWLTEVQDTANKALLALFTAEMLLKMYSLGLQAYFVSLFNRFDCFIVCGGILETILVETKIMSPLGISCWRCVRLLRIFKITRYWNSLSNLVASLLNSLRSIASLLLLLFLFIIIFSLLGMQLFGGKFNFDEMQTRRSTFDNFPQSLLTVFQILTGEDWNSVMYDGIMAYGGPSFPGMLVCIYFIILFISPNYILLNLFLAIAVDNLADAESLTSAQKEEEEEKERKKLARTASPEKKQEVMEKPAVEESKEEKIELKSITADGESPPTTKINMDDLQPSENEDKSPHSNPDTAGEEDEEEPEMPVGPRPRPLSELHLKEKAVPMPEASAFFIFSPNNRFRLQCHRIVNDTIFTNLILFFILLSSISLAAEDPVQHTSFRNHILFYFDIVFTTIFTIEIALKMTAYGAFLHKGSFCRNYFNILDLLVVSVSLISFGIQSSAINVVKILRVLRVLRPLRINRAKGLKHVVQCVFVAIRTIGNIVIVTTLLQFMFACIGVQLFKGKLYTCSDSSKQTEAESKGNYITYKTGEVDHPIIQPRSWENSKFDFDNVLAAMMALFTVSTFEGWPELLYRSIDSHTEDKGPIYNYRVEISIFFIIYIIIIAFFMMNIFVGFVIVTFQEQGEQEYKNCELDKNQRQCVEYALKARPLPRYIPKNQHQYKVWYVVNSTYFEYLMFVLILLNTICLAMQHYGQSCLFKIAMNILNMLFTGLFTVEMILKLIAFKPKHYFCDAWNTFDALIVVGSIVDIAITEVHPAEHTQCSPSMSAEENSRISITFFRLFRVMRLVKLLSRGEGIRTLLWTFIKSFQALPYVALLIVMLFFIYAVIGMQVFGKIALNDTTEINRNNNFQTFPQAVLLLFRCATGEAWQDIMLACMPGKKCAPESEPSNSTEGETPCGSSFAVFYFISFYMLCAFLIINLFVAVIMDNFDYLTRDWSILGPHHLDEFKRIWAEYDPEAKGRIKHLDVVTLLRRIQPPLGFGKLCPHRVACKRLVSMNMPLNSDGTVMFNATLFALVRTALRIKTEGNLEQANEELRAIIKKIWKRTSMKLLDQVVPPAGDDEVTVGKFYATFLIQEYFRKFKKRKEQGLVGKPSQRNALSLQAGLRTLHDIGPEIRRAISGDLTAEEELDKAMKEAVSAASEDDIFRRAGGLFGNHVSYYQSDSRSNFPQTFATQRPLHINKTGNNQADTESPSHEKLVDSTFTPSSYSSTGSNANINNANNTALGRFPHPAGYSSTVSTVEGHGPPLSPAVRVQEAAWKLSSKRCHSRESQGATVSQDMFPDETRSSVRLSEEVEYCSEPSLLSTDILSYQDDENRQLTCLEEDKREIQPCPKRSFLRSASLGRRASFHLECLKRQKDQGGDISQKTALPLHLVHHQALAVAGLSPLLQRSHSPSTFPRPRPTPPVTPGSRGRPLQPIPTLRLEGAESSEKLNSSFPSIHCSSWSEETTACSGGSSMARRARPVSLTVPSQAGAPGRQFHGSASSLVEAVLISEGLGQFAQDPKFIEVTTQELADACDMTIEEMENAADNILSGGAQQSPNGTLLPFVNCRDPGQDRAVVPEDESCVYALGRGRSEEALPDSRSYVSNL
T2 sequence (P54290 25-1091 partner, other chains not shown): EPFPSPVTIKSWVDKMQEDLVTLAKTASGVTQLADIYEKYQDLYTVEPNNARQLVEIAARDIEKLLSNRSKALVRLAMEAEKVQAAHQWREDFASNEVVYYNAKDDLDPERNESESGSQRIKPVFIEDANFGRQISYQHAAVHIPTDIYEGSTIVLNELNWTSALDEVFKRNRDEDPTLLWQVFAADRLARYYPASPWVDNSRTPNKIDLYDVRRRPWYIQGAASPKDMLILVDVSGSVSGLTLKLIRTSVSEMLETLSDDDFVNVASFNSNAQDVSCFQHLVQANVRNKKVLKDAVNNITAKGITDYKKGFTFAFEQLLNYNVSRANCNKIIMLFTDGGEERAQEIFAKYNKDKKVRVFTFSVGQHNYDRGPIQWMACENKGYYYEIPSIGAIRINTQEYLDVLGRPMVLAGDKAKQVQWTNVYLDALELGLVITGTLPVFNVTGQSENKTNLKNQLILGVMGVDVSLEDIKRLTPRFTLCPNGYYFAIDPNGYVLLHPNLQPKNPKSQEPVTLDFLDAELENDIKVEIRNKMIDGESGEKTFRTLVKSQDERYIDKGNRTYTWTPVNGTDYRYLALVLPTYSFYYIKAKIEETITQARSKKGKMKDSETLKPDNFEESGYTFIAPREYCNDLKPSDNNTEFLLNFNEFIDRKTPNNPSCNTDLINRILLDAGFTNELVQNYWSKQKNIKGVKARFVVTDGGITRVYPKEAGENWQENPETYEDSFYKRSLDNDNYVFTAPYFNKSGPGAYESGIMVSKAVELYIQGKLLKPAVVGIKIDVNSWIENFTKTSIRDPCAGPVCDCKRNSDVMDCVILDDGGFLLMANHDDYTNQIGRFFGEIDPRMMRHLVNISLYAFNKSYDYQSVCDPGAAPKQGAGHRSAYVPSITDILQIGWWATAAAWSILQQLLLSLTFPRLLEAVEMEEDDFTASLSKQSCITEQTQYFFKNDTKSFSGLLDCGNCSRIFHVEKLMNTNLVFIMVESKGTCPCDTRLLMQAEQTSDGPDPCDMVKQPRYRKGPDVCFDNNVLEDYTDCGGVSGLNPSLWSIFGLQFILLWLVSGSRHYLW
Source text: Manual patch‐clamp recordings of membrane currents (I NCX, L‐type Ca^2+ channel current [I CaL], human cardiac sodium 1.5 current [I Na], and I hERG) were undertaken using either an Axopatch 200B or Axopatch ID amplifier (Molecular Devices, USA), using the whole‐cell configuration. Cells were at least initially (except when recording I Na) perfused with an extracellular solution consisting of (in mM) 143 NaCl, 4 KCl, 1.8 CaCl2, 1.2 MgCl2, 5 glucose, and 10 HEPES (pH 7.4 with NaOH; osmolarity adjusted to 301 ± 3 mOsm). A slightly modified version was used for the rat ventricular CMs (in mM: 144 NaCl, 0.4 NaH2PO4, 4.0 KCl, 1.8 CaCl2, 0.53 MgSO4, 5.5 glucose, and 5.0 HEPES). Patch pipettes were pulled with a P‐2000 or P‐97 micropipette puller (Sutter Instruments, USA) from borosilicate glass capillaries and had resistances of between 2 and 4 MΩ when filled with any of the pipette solutions (see below). The data were filtered at 1 or 2 kHz and digitized at 10 kHz with acquisition and analysis performed by use of pClamp software (Versions 8–10; Molecular Devices; RRID:SCR_011323).
I CaL was recorded from hiPSC‐derived CMs (at room temperature, n = 2) and rat ventricular myocytes at 1 μM (n = 3; 5 cells) and at 10 μM (n = 4; 6 cells) in an extracellular solution supplemented with 4‐aminopyridine (3 mM) at 37 °C. The pipette solution used for hiPSC‐derived CMs consisted (in mM) (pH 7.2; osmolarity adjusted to 293 mOsm) 110 KCl, 40 KOH, 20 TEACI, 3 MgATP, 10 EGTA, and 5 HEPES. The composition of the pipette solution used for rat CMs was (in mM) 125 CsCl, 20 TEACI, 5 MgATP, 10 EGTA, and 10 HEPES; the pH was adjusted to 7.2 using CsOH. I CaL was evoked by a 400‐ms depolarization process to 0 mV from a holding potential of −40 mV every 5 s or, in the case of the rat CMs, by 400 ms; depolarizations to potentials ranging from −35 to 55 mV occurred after a prepulse to −40 mV, from the holding potential of −80 mV.
The effect of ORM-11372 on the inward calcium current (ICaL) in isolated rat cardiomyocytes. ICaL current was evoked by 400 ms-long depolarizing voltage pulses to various test potentials, ranging from -35 mV to 55 mV. The holding potential was -80 mV. A short prepulse to -40 mV served to inactivate the Na+ current (the top part of the panel A). Examples of originals currents are shown in the lower part of panel A, before and after 1 µM ORM-11372 exposure in an isolated rat myocyte. Panels B and C illustrate the current-voltage relation (I-V curves) of ICaL in the absence and presence of 1 µM and 10 µM ORM-11372 (panels B and C, […]
are means ± standard errors of the means.
(1 picture or pasted object on this page, not shown here)

Nc1cccc(-c2ccc(CNc3ccc(F)cc3)o2)c1 [ORM‐11372]
pIC50 [1]: 5.77
effect on calcium current (ICaL) at various test potentials ([2]; 1 µM, n=3, 5 cells): did not change
L-type calcium current amplitude, MEAN ([2]; 1 µM, test potential 0 mV, 5 cells, control -1375.4): -1268.0 pA
L-type calcium current amplitude, MEAN ([2]; 1 µM, test potential 5 mV, 5 cells, control -1319.9): -1233.1 pA
L-type calcium current amplitude, MEAN ([2]; 1 µM, test potential 10 mV, 5 cells, control -1195.5): -1106.0 pA
L-type calcium current amplitude, MEAN ([2]; 1 µM, test potential 15 mV, 5 cells, control -1031.3): -942.5 pA
L-type calcium current amplitude, MEAN ([2]; 1 µM, test potential 20 mV, 5 cells, control -839.7): -771.6 pA
L-type calcium current amplitude, MEAN ([2]; 1 µM, test potential 25 mV, 5 cells, control -655.3): -598.7 pA
L-type calcium current amplitude, MEAN ([2]; 1 µM, test potential 30 mV, 5 cells, control -482.4): -440.5 pA
L-type calcium current amplitude, MEAN ([2]; 1 µM, test potential 35 mV, 5 cells, control -321.0): -290.5 pA
L-type calcium current amplitude, MEAN ([2]; 1 µM, test potential 40 mV, 5 cells, control -184.5): -165.5 pA
L-type calcium current amplitude, MEAN ([2]; 1 µM, test potential 45 mV, 5 cells, control -86.9): -75.9 pA
L-type calcium current amplitude, MEAN ([2]; 1 µM, test potential 50 mV, 4 cells, control -2.1): -6.3 pA
L-type calcium current amplitude, MEAN ([2]; 1 µM, test potential 55 mV, 4 cells, control 73.5): 65.1 pA
L-type calcium current amplitude, MEAN ([2]; 1 µM, test potential -5 mV, 5 cells, control -1356.0): -1228.2 pA
L-type calcium current amplitude, MEAN ([2]; 1 µM, test potential -10 mV, 5 cells, control -1170.3): -1150.4 pA
L-type calcium current amplitude, MEAN ([2]; 1 µM, test potential -15 mV, 5 cells, control -958.3): -852.5 pA
L-type calcium current amplitude, MEAN ([2]; 1 µM, test potential -20 mV, 5 cells, control -659.5): -595.2 pA
L-type calcium current amplitude, MEAN ([2]; 1 µM, test potential -25 mV, 5 cells, control -416.8): -428.2 pA
L-type calcium current amplitude, MEAN ([2]; 1 µM, test potential -30 mV, 5 cells, control -247.1): -254.7 pA
L-type calcium current amplitude, MEAN ([2]; 1 µM, test potential -35 mV, 5 cells, control -143.0): -137.4 pA
effect on calcium current (ICaL) at various test potentials ([2]; 10 µM, n=4, 6 cells): significantly decreased
effect on calcium current (ICaL) at various test potentials ([2]; 10 µM, n=4, 6 cells, listed as ORM-11372): moderately decreased
L-type calcium current amplitude, MEAN ([2]; 10 µM, test potential 0 mV, 6 cells, control -1895.4): -1170.0 pA
L-type calcium current amplitude, MEAN ([2]; 10 µM, test potential 5 mV, 6 cells, control -1875.0): -1197.8 pA
L-type calcium current amplitude, MEAN ([2]; 10 µM, test potential 10 mV, 6 cells, control -1771.9): -1118.9 pA
L-type calcium current amplitude, MEAN ([2]; 10 µM, test potential 15 mV, 6 cells, control -1587.7): -1003.2 pA
L-type calcium current amplitude, MEAN ([2]; 10 µM, test potential 20 mV, 6 cells, control -1357.7): -873.9 pA
L-type calcium current amplitude, MEAN ([2]; 10 µM, test potential 25 mV, 6 cells, control -1116.0): -718.1 pA
L-type calcium current amplitude, MEAN ([2]; 10 µM, test potential 30 mV, 6 cells, control -896.3): -561.5 pA
L-type calcium current amplitude, MEAN ([2]; 10 µM, test potential 35 mV, 6 cells, control -698.8): -429.4 pA
L-type calcium current amplitude, MEAN ([2]; 10 µM, test potential 40 mV, 6 cells, control -525.3): -320.9 pA
L-type calcium current amplitude, MEAN ([2]; 10 µM, test potential 45 mV, 6 cells, control -374.5): -237.0 pA
L-type calcium current amplitude, MEAN ([2]; 10 µM, test potential 50 mV, 6 cells, control -291.0): -189.1 pA
L-type calcium current amplitude, MEAN ([2]; 10 µM, test potential 55 mV, 6 cells, control -158.4): -114.5 pA
L-type calcium current amplitude, MEAN ([2]; 10 µM, test potential -5 mV, 6 cells, control -1762.2): -1043.1 pA
L-type calcium current amplitude, MEAN ([2]; 10 µM, test potential -10 mV, 6 cells, control -1447.7): -807.4 pA
L-type calcium current amplitude, MEAN ([2]; 10 µM, test potential -15 mV, 6 cells, control -1127.6): -525.5 pA
L-type calcium current amplitude, MEAN ([2]; 10 µM, test potential -20 mV, 6 cells, control -920.0): -316.1 pA
L-type calcium current amplitude, MEAN ([2]; 10 µM, test potential -25 mV, 6 cells, control -667.6): -184.1 pA
L-type calcium current amplitude, MEAN ([2]; 10 µM, test potential -30 mV, 6 cells, control -368.9): -115.9 pA
L-type calcium current amplitude, MEAN ([2]; 10 µM, test potential -35 mV, 6 cells, control -156.2): -64.1 pA
inhibition at 1 µM ([2]; rat CMs, 1 μM, 0 mV, read-out: inhibition of inward I CaL): 7.8%
inhibition at 10 µM ([2]; test potentials 0 to 40 mV): 36 to 39%
inhibition at 10 µM ([2]; test potentials −35 to −20 mV): 59 to 69%
